Columns and labels:
Format in all cases: in vivo
[1] = tested on: Alopecurus myosuroides (ALOMY); assay: Pre-emergence herbicidal glasshouse test on Alopecurus myosuroides; conditions: pre-emergence; 1000 g/h; evaluated after 13 days
Summary of the method: (§1)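 Steps: sow seeds in standard soil; cultivate 1 d (pre-) or 8 d (post-emergence) at 24/16 °C, 14 h light, 65% humidity; spray 1000 g/h in acetone/water plus Tween 20; grow on, watering twice daily; score percentage damage after 13 d.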

Setaria faberi (SETFA) [2] = assay: Pre-emergence herbicidal glasshouse test on Setaria faberi; conditions: pre-emergence; 1000 g/h; evaluated after 13 days
Summary of the method: as §1

[3] = tested on: Echinochloa crus-galli (ECHCG); assay: Pre-emergence herbicidal glasshouse test on Echinochloa crus-galli; conditions: pre-emergence; 1000 g/h; evaluated after 13 days
Summary of the method: as §1

Solanum nigrum (SOLNI) [4] = assay: Pre-emergence herbicidal glasshouse test on Solanum nigrum; conditions: pre-emergence; 1000 g/h; evaluated after 13 days
Summary of the method: as §1

[5] = tested on: Amaranthus retoflexus (AMARE); assay: Pre-emergence herbicidal glasshouse test on Amaranthus retoflexus; conditions: pre-emergence; 1000 g/h; evaluated after 13 days
Summary of the method: as §1

[6] = tested on: Ipomoea hederacea (IPOHE); assay: Pre-emergence herbicidal glasshouse test on Ipomoea hederacea; conditions: pre-emergence; 1000 g/h; evaluated after 13 days
Summary of the method: as §1

[7] = tested on: Alopecurus myosuroides (ALOMY); assay: Post-emergence herbicidal glasshouse test on Alopecurus myosuroides; conditions: post-emergence; 1000 g/h; evaluated after 13 days
Summary of the method: as §1

Setaria faberi (SETFA) [8] = assay: Post-emergence herbicidal glasshouse test on Setaria faberi; conditions: post-emergence; 1000 g/h; evaluated after 13 days
Summary of the method: as §1

[9] = tested on: Echinochloa crus-galli (ECHCG); assay: Post-emergence herbicidal glasshouse test on Echinochloa crus-galli; conditions: post-emergence; 1000 g/h; evaluated after 13 days
Summary of the method: as §1

Solanum nigrum (SOLNI) [10] = assay: Post-emergence herbicidal glasshouse test on Solanum nigrum; conditions: post-emergence; 1000 g/h; evaluated after 13 days
Summary of the method: as §1

[11] = tested on: Amaranthus retoflexus (AMARE); assay: Post-emergence herbicidal glasshouse test on Amaranthus retoflexus; conditions: post-emergence; 1000 g/h; evaluated after 13 days
Summary of the method: as §1

[12] = tested on: Ipomoea hederacea (IPOHE); assay: Post-emergence herbicidal glasshouse test on Ipomoea hederacea; conditions: post-emergence; 1000 g/h; evaluated after 13 days
Summary of the method: as §1

SMILES | PRE Application ALOMY herbicidal damage (five point scale) [1] | PRE Application SETFA herbicidal damage (five point scale) (Setaria faberi (SETFA) [2]) | PRE Application ECHCG herbicidal damage (five point scale) [3] | PRE Application SOLNI herbicidal damage (five point scale) (Solanum nigrum (SOLNI) [4]) | PRE Application AMARE herbicidal damage (five point scale) [5] | PRE Application IPOHE herbicidal damage (five point scale) [6] | POST Application ALOMY herbicidal damage (five point scale) [7] | POST Application SETFA herbicidal damage (five point scale) (Setaria faberi (SETFA) [8]) | POST Application ECHCG herbicidal damage (five point scale) [9] | POST Application SOLNI herbicidal damage (five point scale) (Solanum nigrum (SOLNI) [10]) | POST Application AMARE herbicidal damage (five point scale) [11] | POST Application IPOHE herbicidal damage (five point scale) [12]
CC(C)S(=O)(=O)c1ccccc1-c1cnn(C)c(=O)c1O [Compound 1.044] | 5 (5=80-100% damage) | 5 (5=80-100% damage) | 5 (5=80-100% damage) | 5 (5=80-100% damage) | 5 (5=80-100% damage) | 1 (1=0-19% damage) | 5 (5=80-100% damage) | 5 (5=80-100% damage) | 5 (5=80-100% damage) | 5 (5=80-100% damage) | 5 (5=80-100% damage) | 5 (5=80-100% damage)
CCC(C)n1ncc(-c2ccc(S(C)(=O)=O)c(C3=NOCC3)c2C)c(O)c1=O (stereo not drawn) [Compound 1.003] | 1 (1=0-19% damage) | 1 (1=0-19% damage) | 5 (5=80-100% damage) | 4 (4=60-79% damage) | 5 (5=80-100% damage) | 3 (3=40-59% damage) | 2 (2=20-39% damage) | 5 (5=80-100% damage) | 5 (5=80-100% damage) | 5 (5=80-100% damage) | 5 (5=80-100% damage) | 5 (5=80-100% damage)
C#Cn1ncc(-c2ccc(C(F)(F)F)cc2S(C)(=O)=O)c(O)c1=O [Compound 2.010] | 5 (5=80-100% damage) | 5 (5=80-100% damage) | 5 (5=80-100% damage) | 5 (5=80-100% damage) | 5 (5=80-100% damage) | 5 (5=80-100% damage) | 5 (5=80-100% damage) | 5 (5=80-100% damage) | 5 (5=80-100% damage) | 5 (5=80-100% damage) | 5 (5=80-100% damage) | 5 (5=80-100% damage)
CS(=O)(=O)c1cc(Cl)ccc1-c1cnn(C2CC2)c(=O)c1O [Compound 2.014] | 5 (5=80-100% damage) | 5 (5=80-100% damage) | 5 (5=80-100% damage) | 5 (5=80-100% damage) | 5 (5=80-100% damage) | 5 (5=80-100% damage) | 5 (5=80-100% damage) | 5 (5=80-100% damage) | 5 (5=80-100% damage) | 5 (5=80-100% damage) | 5 (5=80-100% damage) | 5 (5=80-100% damage)
Cn1ncc(-c2ccccc2Cl)c(O)c1=O [Compound 1.114] | 1 (1=0-19% damage) | 1 (1=0-19% damage) | 1 (1=0-19% damage) | 1 (1=0-19% damage) | 1 (1=0-19% damage) | 1 (1=0-19% damage) | 1 (1=0-19% damage) | 1 (1=0-19% damage) | 1 (1=0-19% damage) | 1 (1=0-19% damage) | 1 (1=0-19% damage) | 1 (1=0-19% damage)

Reference: patent publication US9693556B2, “Herbicidal pyridazinone derivatives” (SYNGENTA LIMITED, priority 2011, dated 2017)
